Data from patent US20240358731A1, “SUMO PATHWAY AS AN OXYGEN SENSOR RELEVANT TO THE PATHOPHYSIOLOGY OF PULMONARY ARTERY HYPERTENSION AND CARDIAC ARRHYTHMIA” (Northeastern University, priority 2023, published 2024).

Experiments:
[1] = molecular target: T1, Kir2.1-mediated IK1 current (Rattus norvegicus, UniProt Q64273); experiment: Whole-cell patch-clamp of IK1 in rat ventricular cardiomyocytes under acute hypoxia; assay type: cell-based; conditions: 3 mM
T1 construct: endogenous in cells; host or cells: rat ventricular cardiomyocytes (RVCMs)
T1 sequence (Q64273 1-427): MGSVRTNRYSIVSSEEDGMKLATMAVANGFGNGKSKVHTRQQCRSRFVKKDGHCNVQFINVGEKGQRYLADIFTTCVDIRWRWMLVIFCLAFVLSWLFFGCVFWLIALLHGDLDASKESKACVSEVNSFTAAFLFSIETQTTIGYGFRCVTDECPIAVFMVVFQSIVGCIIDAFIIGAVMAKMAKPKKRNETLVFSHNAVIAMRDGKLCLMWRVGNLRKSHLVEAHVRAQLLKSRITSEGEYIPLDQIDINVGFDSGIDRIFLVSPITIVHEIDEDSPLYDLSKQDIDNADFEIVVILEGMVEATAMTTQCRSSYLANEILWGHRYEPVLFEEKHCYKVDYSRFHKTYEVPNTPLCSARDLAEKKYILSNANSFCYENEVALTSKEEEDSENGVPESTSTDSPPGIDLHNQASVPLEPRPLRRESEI
Procedure: IK1 in rat ventricular cardiomyocytes studied by whole-cell patch-clamp. Hypoxia was a drop in O2 from ambient levels to 2%, measured at the cell. The time-course of hypoxic-inhibition was studied by recording the magnitude of IK1 every second. Cells were studied with the following pipette solutions: control, SUMO1 (1 μM) or SENP1 (2 μM). IK1 was blocked by the addition of 3 mM Ba^2+. […] Left, representative current sweeps; right, a representative time course showing the kinetics of hypoxic inhibition in cardiomyocytes studied with control pipette solution. The inhibition is precluded by including SENP1 (2 μM, magenta) in the recording pipette. The reverse ramp recording protocol is inset. […] SENP1 augments IK1 and protects the current from hypoxia. Data are from 8-10 RVCMs per group, **** P<0.0001, paired, two-tailed Student's […]. […] Representative data are shown with DAPI labeled nuclei and PLA interactions. Summary data are obtained from multiple experiments each with multiple fields of view containing 20-30 nuclei. The scale bar is 10 μm.
To knockdown Kir2.1 expression, RVCMs were transduced with lentiviral particles carrying cGFP and shRNA targeting KCNJ2-mRNA for the channel. Kir2.1 knockdown cells (Kir2.1kd-CMs) were identified by expression of cGFP. Cells were studied with control pipette solution, or with pipette solutions containing purified SUMO1 (1 μM) or SENP1 (2 μM). Where indicated, the control pipette solution contained diC8 PIP2. Paired patch-clamp data were analyzed by Students t-test; ***, P<0.01. […] Kir2.1kd-CMs are identified by expression of GFP (inset, scale bar=10 μm). […] The arrow indicates the change in current-magnitude between exposure to ambient O2 and 2% O2 in the same cell. Right, Concentration-response curve showing that including diC8-PIP2 in the pipette opposes hypoxic-inhibition of IK1 in control RVCMs and RVCMs expressing the scrambled shRNA. The hypoxic-response is diminished in Kir2.1kd-CMs. Data are mean±s.d. for 7-8 cells per condition. […] Current inhibition is diminished when SENP1 is included in the recording pipette and is not observed when SUMO-insensitive Kir2.1-K49Q channels are studied. Data are mean±s.d. for 6 cells per condition.
Hypoxic-inhibition of Kir2.1 in cardiomyocytes via SUMOylation. We studied the effects of acute hypoxia on IK1 in rat ventricular cardiomyocytes (RVCMs) by whole cell patch-clamp recording. […] Both the hypoxia-sensitive and insensitive components of the current were blocked by Ba^2+ (3 mM), consistent with the known role of Kir2 channels in mediating IK1 (FIG. 1a). To determine if SUMOylation mediates the hypoxic inhibition of IK1 we introduced purified SENP1 (2 μM) to the cytosol via the recording pipette. […] Both the SUMO1 and hypoxia-mediated inhibition of IK1 remained stable throughout the remainder of the experiment (up to 10 mins). […] Next, we visualized and quantified the interactions between native Kir2.1 and SUMO1 in RVCMs using the proximity-ligation association (PLA) assay with antibodies we validated in heterologous cells by Western blot. […] The validated Kir2 antibodies were paired with SUMO1 antibodies that we have tested and utilized before. Under control conditions, interactions were observed between Kir2.1 and SUMO1, but not between Kir2.2 or Kir2.3 and SUMO1. […] Although cardiomyocytes are typically cultured at 21% O2, the O2-level in the myocardium is estimated to be in the range of 5-10% O2, under physiological conditions.
Hypoxic-inhibition of IK1/Kir2.1 is reduced by diC8-PIP2 in a concentration-dependent manner. We have shown that adding the exogenous, soluble PIP2 analog diC8-PIP2 into the patch-pipette opposes hypoxic-inhibition of IK1 (FIG. 4). […] As before, the effects of hypoxia were ameliorated by SENP1 (2 μM) and were not observed in the SUMO and hypoxia insensitive Kir2.1-K49Q channels (FIG. 4D).

[2] = molecular target: T2, SUMO activating enzyme (SAE) (Homo sapiens, UniProt Q9UBE0+Q9UBT2); conditions: cited from earlier work
T2 sequence (Q9UBE0 1-346): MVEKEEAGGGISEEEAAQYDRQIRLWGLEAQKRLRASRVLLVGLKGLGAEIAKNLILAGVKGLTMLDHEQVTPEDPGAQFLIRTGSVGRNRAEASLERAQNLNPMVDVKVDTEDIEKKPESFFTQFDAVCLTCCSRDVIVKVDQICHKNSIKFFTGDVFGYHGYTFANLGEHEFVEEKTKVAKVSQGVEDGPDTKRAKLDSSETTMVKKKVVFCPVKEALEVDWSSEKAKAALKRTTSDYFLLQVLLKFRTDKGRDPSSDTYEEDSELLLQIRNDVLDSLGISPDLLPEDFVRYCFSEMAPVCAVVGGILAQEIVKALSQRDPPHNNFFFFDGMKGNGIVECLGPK
T2 sequence (Q9UBT2 1-640): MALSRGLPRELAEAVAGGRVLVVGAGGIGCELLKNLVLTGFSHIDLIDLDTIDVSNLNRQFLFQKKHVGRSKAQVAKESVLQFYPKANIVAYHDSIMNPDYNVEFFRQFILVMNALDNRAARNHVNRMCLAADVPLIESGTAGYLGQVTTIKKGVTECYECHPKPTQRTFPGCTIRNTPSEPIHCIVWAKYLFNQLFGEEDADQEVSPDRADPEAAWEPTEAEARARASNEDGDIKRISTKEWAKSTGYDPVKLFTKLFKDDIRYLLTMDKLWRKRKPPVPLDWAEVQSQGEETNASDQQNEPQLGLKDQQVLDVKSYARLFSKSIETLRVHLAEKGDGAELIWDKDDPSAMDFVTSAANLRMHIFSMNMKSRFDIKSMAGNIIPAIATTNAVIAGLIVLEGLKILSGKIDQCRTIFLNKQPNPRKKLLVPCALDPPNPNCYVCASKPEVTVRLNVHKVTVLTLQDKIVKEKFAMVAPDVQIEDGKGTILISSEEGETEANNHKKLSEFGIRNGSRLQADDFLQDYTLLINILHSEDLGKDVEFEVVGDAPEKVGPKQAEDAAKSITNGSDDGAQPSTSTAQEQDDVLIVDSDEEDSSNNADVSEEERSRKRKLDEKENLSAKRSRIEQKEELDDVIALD

[3] = molecular target: Ubc9 (Homo sapiens, UniProt P63279); conditions: cited from earlier work
[4] = test system: SUMOylation; conditions: cited from earlier work
[5] = molecular target: T3, Kir2.4 (Homo sapiens, UniProt Q9UNX9); experiment: Whole-cell patch-clamp of Kir2.4 in HEK293 cells with SUMO1 or SENP1 in the recording pipette; assay type: cell-based; parameters: expressed in transfected cells; conditions: 1 nM in pipette; 140 mM bath K+; within one-minute of breakthrough
T3 sequence (Q9UNX9 1-436): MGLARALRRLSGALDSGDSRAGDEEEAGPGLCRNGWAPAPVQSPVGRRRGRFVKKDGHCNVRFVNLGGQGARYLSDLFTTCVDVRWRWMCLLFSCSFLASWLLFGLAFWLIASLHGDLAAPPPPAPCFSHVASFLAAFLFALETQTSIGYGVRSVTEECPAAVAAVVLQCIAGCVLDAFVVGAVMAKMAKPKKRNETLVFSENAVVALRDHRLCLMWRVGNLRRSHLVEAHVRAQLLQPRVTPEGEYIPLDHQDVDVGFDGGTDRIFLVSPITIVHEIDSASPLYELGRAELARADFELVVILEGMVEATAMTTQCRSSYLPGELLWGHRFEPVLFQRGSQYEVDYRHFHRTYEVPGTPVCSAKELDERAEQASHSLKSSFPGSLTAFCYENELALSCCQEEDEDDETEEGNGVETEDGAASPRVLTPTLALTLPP
Procedure: Currents were measured at −80 mV in 140 mM external K+.
Similarly, currents were no longer enhanced by SENP1.
SUMOylation regulates Kir2.4 channels in mammalian cells. Next, we tested if SUMO could regulate Kir2.4 channels in mammalian cells. Kir2.4 channels were transiently expressed in HEK293 cells and studied in whole-cell mode with 140 mM bath [K]^+, using a ramp protocol from −80 to +80 mV. Purified SUMO1 or SENP1 peptide were introduced via the recording pipette. At 1 nM, SUMO1, but not heat-denatured SUMO1, inhibited Kir2.4 currents by ˜40 and 60%, respectively, within one-minute of breakthrough. In contrast, 1 nM SENP1 increased the current by ˜50% (FIG. 7).
The PIP2-dependence of SUMO-regulation. Using the 5-ptaseOCRL system, we depleted PIP2 in HEK293 cells expressing Kir2.4 and studied currents with 1 nM SUMO1, or SENP1 in the recording pipette. When currents were recorded after 5-min activation of the optogenetic probe, 5-ptaseOCRL, the inhibitory effect of 1 nM SUMO1 on Kir2.4 was reduced from ˜40% to ˜7% (FIG. 9). Current augmentation observed with SENP1 in the pipette was reduced from […] to ˜6%. These preliminary data support the conclusion that SUMO-regulation of Kir2.4 channels is PIP2-dependent.

Ubc9, sequence (P63279 whole entry): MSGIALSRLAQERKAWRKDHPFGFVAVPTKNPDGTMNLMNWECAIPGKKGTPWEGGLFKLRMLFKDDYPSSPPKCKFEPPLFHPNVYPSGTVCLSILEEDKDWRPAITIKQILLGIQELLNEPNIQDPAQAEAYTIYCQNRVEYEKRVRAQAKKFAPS

[Ba+2] [Ba^2+]
block of IK1 (hypoxia-sensitive and insensitive components) [1]: blocked

C=CC[C@@H](Nc1ccccc1)C12C=CC(O1)C(C(=O)OC)=C2C(=O)OC (stereo partly shown) [CID9549553]
SAE / SUMO E1 inhibition [2]: covalently targets an allosteric binding pocket of SUMO E1

O=c1cc(-c2ccc(O)c(O)c2O)oc2ccccc12 [Compound 2-D08]
Ubc9 (SUMO-E2) inhibition [3]: inhibits Ubc9 by preventing the transfer of SUMO from Ubc9 to the substrate

COc1ccc(NC(=O)Nc2ccc(Oc3ncnc4cc(Cl)ccc34)nc2)cc1OC1CCCC1 [Compound 10]
SUMOylation inhibition [4]: potent in vitro SUMOylation inhibitor | formation of the E1-SUMO complex [2]: prevents formation of the E1-SUMO complex

CCCCn1c(NS(=O)(=O)c2ccccc2)c(S(=O)(=O)c2ccc(C)cc2)c2nc3ccccc3nc21 [Compound 15]
SAE / SUMO E1 inhibition [2]: most potent

c1coc(-c2cc(CNc3ncnc4sc5cnccc5c34)no2)c1 [Compound 22]
selectivity for the SUMOylation pathway [3]: modest selectivity for the SUMOylation pathway | formation of the E1-SUMO complex [2]: unable to block formation of the E1-SUMO complex

Cc1cc(NC(=O)c2ccc(S(=O)(=O)N3CCC(C)CC3)cc2)ccc1NC(=O)Cn1cccn1 [Compound 26]
formation of the SUMO-E2 complex [3]: inhibited formation of the SUMO-E2 complex

C[C@@H](C(=O)Nc1ccc(NC(=O)c2ccc(C(=O)c3ccccc3)cc2)cc1)n1cccn1 [Compound 27]
formation of the SUMO-E2 complex [3]: inhibited formation of the SUMO-E2 complex

COc1ccc(-c2nnc(Nc3nc4c(OC)cccc4s3)o2)cc1 [Compound N106]
SUMO-E1 activation [2]: capable of increasing SUMOylation through the activation of SUMO-E1

O=C(Oc1cc(C(=O)O[C@H]2O[C@@H](OC(=O)c3cc(O)c(O)c(OC(=O)c4cc(O)c(O)c(O)c4)c3)[C@H](OC(=O)c3cc(O)c(O)c(OC(=O)c4cc(O)c(O)c(O)c4)c3)[C@@H](OC(=O)c3cc(O)c(O)c(OC(=O)c4cc(O)c(O)c(O)c4)c3)[C@@H]2OC(=O)c2cc(O)c(O)c(OC(=O)c3cc(O)c(O)c(O)c3)c2)cc(O)c1O)c1cc(O)c(O)c(O)c1 [Davidiin]
SUMOylation inhibition [4]: one of the most potent natural product SUMOylation inhibitors identified | formation of the E1-SUMO complex [2]: blocks the formation of the E1-SUMO complex

NS(=O)(=O)OC[C@H]1C[C@@H](Nc2ncncc2C(=O)c2ccn(Cc3cccc(Br)c3)n2)C[C@@H]1O [ML-792]
SAE / SUMO E1 inhibition [2]: selective SAE inhibitor

CO/C(=C/C(=O)O)[C@H]1c2cc3ccc(-c4ccc5cc6c(c(O)c5c4O)C(=O)C[C@@](C)(O)[C@H]6/C(=C\C(=O)O)OC)c(O)c3c(O)c2C(=O)C[C@@]1(C)O [spectomycin B1]
Ubc9 (SUMO-E2) inhibition [3]: inhibitors of SUMO-E2

CC1(C)CCC2=C(O1)c1ccccc1C(=O)C2=O [β-lapachone]
SUMOylation inhibition [4]: potent SUMOylation inhibitors

chaetochromin A
Ubc9 (SUMO-E2) inhibition [3]: inhibitors of SUMO-E2

heat-denatured SUMO1: heat-denatured SUMO1 peptide, control
inhibition of Kir2.4 currents [5]: not

viomellein
Ubc9 (SUMO-E2) inhibition [3]: inhibitors of SUMO-E2
